Test results published in patent publication US12668589B2, “N-formamidopyrazoline derivative as P2X3 receptor antagonist and use thereof” (HANGZHOU WESTAN PHARMACEUTICAL TECHNOLOGY CO., LTD, priority 2020, dated 2026).
Read-outs that look alike come from different tables or passages of the source.

Columns and labels:
[1] = In-vivo pharmacokinetic experiments on rats; set-up: species or system SD rats; details: for clearance / half-life / Cmax / Vd / Tmax / bioavailability: both sexes, SD, plasma; for Vd: read-out: Vss
Description: SD rats were used, half male and half female, which were administered with compounds by intravenous injection (3 mg/kg), intraperitoneal injection (10 mg/kg) or gavage (30 mg/kg) at different doses. At different time points after administration, blood was collected into EDTA blood sample collection tubes. Plasma was separated by centrifugation and stored at −20° C. pending analysis.
Standard curve and quality control sample preparation and processing: a compound stock solution was taken and diluted with 50% methanol water to make standard working solutions containing each compound concentration of 20 to 10,000 ng/mL, and 60, 600, 6,000 ng/mL quality control working solutions. 47.5 μL of blank rat plasma was taken, respectively, in which 2.50 μL of the standard curve working solutions and quality control working solutions were added to prepare standard curve samples with each compound concentration of 1.00 to 500.00 ng/mL and quality control samples with concentrations of 3.00, 30.00 and 300.00 ng/mL. 200 μL of acetonitrile (containing 5 ng/mL internal standard verapamil) was added into each sample. After vortex oscillation for 3 minutes, centrifuging was conducted for 15 minutes at 20,000 rcf at 4° C. Supernatants were taken for LC-MS/MS analysis.
Compound blood sample processing: 5 μL of plasma samples were taken. 45 μL of Blank rat plasma was added. 200 μL of Acetonitrile (containing 5 ng/mL internal standard verapamil) was added. After vortex oscillation for 3 minutes, centrifuging was conducted for 15 minutes at 20,000 rcf at 4° C. Supernatants were taken for LC-MS/MS analysis.

[2] = system: taste of SD rats; assay: Rat taste test (quinine water / tap water drinking); assay type: in vivo; details: 10 mg/kg intraperitoneal injection; for Water drinking amount, Tap water: free drinking 15 minutes, amounts measured to the nearest 0.1 mL; for Water drinking amount, Sum: tap plus quinine water; for Water drinking amount, Sum / Water drinking amount, Quinine: 15 minutes, measured to the nearest 0.1 mL; for Water drinking amount, Quinine: water with 0.3 mM quinine hydrochloride
Description: Experimental purpose: to observe an effect of title compounds on taste of SD rats.
• 1.1) Animals and grouping: 40 male SD rats, with about 300 grams per rat. […] A bottle of normal drinking water and a bottle of drinking water containing 0.3 mM quinine hydrochloride were placed in each cage at the same time, and left and right positions where the two bottles of water were placed in all animal feeding cages were the same. After the animals were allowed to freely drink water for 15 minutes, drinking amounts of the two bottles of water were measured respectively to the nearest 0.1 mL. • 1.5) Data statistics: drinking amounts of quinine bitter water and tap water and a total water drinking amount thereof as well as a percentage of quinine water in the total water drinking amount were counted respectively. Water drinking amounts of the bitter water of animals in each group were compared. Whether differences between groups were significant was compared by analysis of variance. 2) Experimental Results

[3] = Liver microsomal enzyme stability test; assay type: in vitro ADME; details: Human liver microsomes 0.5 mg/mL, 1 μM compound, 1 mM NADPH, 37° C.; for half-life at 1 μM: read-out: t1/2 (=0.693/k, min)
Description: An LC-MS/MS method, wherein A liquid phase method adopts a gradient elution method. Chromatographic Column: ACQUITY UPLC® BEH C18 (2.1 mm×50 mm, 1.7 μm); Flow Rate: 0.35 mL/min; Injection Volume: 1 μL (YS001), 3 μL (testosterone); Column Temperature: 40° C.; Automatic Sampler Temperature: 4° C.; Mobile Phase Compositions: mobile phase A: 0.1% formic acid water, and mobile phase B: acetonitrile. Mass spectrometry conditions adopt an ESI source, and positive ion and multiple reaction monitoring (MRM) modes were used for mass spectrometry analysis.
Liver microsome incubation samples were taken, in which 400 μL of an acetonitrile solution containing an internal standard (1 ng/mL loratadine) was added for a termination reaction. Even vortex mixing was conducted at 2,500 rpm. Centrifuging was conducted for 10 minutes at 20,000 rcf at 4° C. Supernatants were taken into clean lined tubes. Contents of prototype drugs were detected by LC-MS/MS.
Metabolic rate test: human liver microsomes were taken, unfrozen and thawed on ice, and gently shaken evenly. […] 80 μL of the above solution was pipetted, and pre-incubated for 5 minutes in a 37° C. water bath, then, 20 μL of a 5 mM NADPH solution was added, and incubating was conducted in a 37° C. water bath. […] After reaction for 0, 10, 30, 60, and 90 minutes, the reaction was terminated with 4 times the volume of acetonitrile (containing 1 ng/mL internal standard loratadine). Even vortex mixing was conducted. High-speed centrifuging was conducted for 10 minutes at 20,000 rcf at 4° C. Supernatants were taken for LC-MS/MS detection. Each incubation sample was subjected to a parallel test in triplicate. Positive control was metabolic samples of microsomes of corresponding species to a positive drug testosterone (1 μM). The reaction was terminated with 4 times the volume of acetonitrile (containing 1 ng/mL internal standard loratadine). Incubation time points were 0, 30, 60 minutes.
Analyst 1.6.3 software was used for data collecting. After integration parameters were optimized, target chromatographic peaks were automatically integrated, individual chromatographic peaks were not allowed to be integrated separately or manually, and retention time and a peak area were calculated. Data was collected by Analyst 1.6.3, and subjected to integration processing to obtain the retention time and the peak area, and a peak area ratio of an analyte to an internal standard was calculated. Then, Microsoft Office Excel was used for secondary processing to calculate a half-life period t1/2 and a clearance rate CLint thereof. A residual percentage (% Control) of tested compounds was calculated from a ratio of a concentration of a non-zero time point sample to a concentration of a zero-time sample. Ln (% Control) was plotted against incubation time and subjected to linear fitting. An elimination constant (ke, 1/min), an elimination half-life period (t1/2, min) and an in-vitro intrinsic clearance rate (CLint, μL/(mg·min)) of the tested compounds were calculated. T1/2=0.693/ke, CLint=ke/Cprotein (Note: ke is a slope, and Cprotein is a protein concentration.)

[4] = iv, Rat PK i.v 3 mg/kg, read-out: Cmax/Co
[5] = po, Rat PK p.o 30 mg/kg, read-out: Cmax

| SMILES | ACU ([1]; Rat PK i.v 3 mg/kg) [kg·ng·h/mL/mg] | ACU ([1]; Rat PK p.o 30 mg/kg) [kg·ng·h/mL/mg] | clearance ([1]; iv, Rat PK i.v 3 mg/kg) [mL/min/kg] | half-life ([1]; iv, Rat PK i.v 3 mg/kg) [h] | Cmax [1, 4] [ng/mL] | Vd ([1]; iv, Rat PK i.v 3 mg/kg) [L/kg] | Tmax ([1]; po, Rat PK p.o 30 mg/kg) [h] | bioavailability ([1]; po, Rat PK p.o 30 mg/kg) [%] | half-life ([1]; po, Rat PK p.o 30 mg/kg) [h] | Cmax [1, 5] [ng/mL] | Water drinking amount, Tap water [2] | Water drinking amount, Sum [2] | Water drinking amount, Quinine [2] | Clint, microsome (=k/Cprotein, μL × min^−1 × mg^−1 proteins) [3] | ke (=−slope, min^−1) [3] [min⁻¹] | half-life at 1 μM [3] [min] |
| --- | --- | --- | --- | --- | --- | --- | --- | --- | --- | --- | --- | --- | --- | --- | --- | --- |
| Cc1ccc(C2=NN(C(=O)N[C@H](C)c3ccc(C(F)(F)F)nc3)C[C@@H]2N2CCOC2=O)cc1 [Compound 22] | 275.63 | 766 | 26.5 | 1.31 | 2210 | 2.8 | 0.92 | 36 | 2.71 | 1450 | 12.26 | 14.13 | 1.87 | 21.4 μL × min^−1 × mg^−1 proteins | 0.0107 | 64.8 |
| CCOC(=O)N(C)[C@H]1CN(C(=O)N[C@H](C)c2cnc(C(F)(F)F)nc2)N=C1c1ccc(C)cc1 [Compound 4, (S)-4-(N-methyl-N-ethoxycarbonylamino)-3-(4-methylphenyl)-N-((R)-1-(2-(trifluoromethyl)pyrimidin-5-yl)ethyl)-4,5-dihydro-1H-pyrazol-1-carboxamide] | 427.84 | 367.68 | 39.2 | 0.6 | 1750 | 2.05 | 1.8 | 86 | 2.23 | 4950 | 11.84 | 13.87 | 2.03 | 3.8 μL × min^−1 × mg^−1 proteins | 0.0019 | 364 |
